Source: patent publication US20250127778A1, “CANCER IMMUNOTHERAPY COMPOSITION CONTAINING INTERACTION INHIBITOR OF STING AND TRIM29 AS ACTIVE INGREDIENT” (SPARK BIOPHARMA, INC, priority 2021, published 2025)

Experiments:
STING [1] = target: STING (Homo sapiens, UniProt Q86WV6); test: Western blotting of STING under co-treatment with MG132, actinomycin D or cycloheximide; assay type: cell-based
From the text: In addition, in order to cross-validate the results of the ELISA experiment, it was confirmed whether the STING increasing effect of the compound of Formula 1 was disappeared when ubiquitinated proteins were prevented from being degraded by treatment with MG132.
In addition, in order to exclude the possibility that the increase in STING expression by the compound of Formula 1 can occur through cellular mechanisms other than ubiquitin-mediated reactions, the transcription inhibitor actinomycin D (ActD) and the ribosome translation inhibitor cycloheximide (CHX) were co-treated with the compound of Formula 1, and whether the STING increase effect was still maintained was confirmed by using the Western blotting method.

CT26 tumor = test: Tumor growth in CT26 in vivo syngeneic mouse model; details: CT26, intratumoral, FIG. 23
Protocol: (§1) 2×10^5 CT26 cell lines were prepared in 50 μL culture medium and subcutaneously injected. […] The cGAMP solution was manufactured with a final composition of PEG400:distilled water=40:60, and 20 μL was injected each time. The solution of the compound of Formula 1 was manufactured with the composition of DMSO:PEG400:distilled water=2:40:58, and 20 μL was injected each time. The cGAMP solution was injected once every two days, four times in total, and the solution of the compound of Formula 1 was injected once every four days, two times in total, starting with the second administration of cGAMP. The size of the tumor was measured by using calipers every two days, and the volume thereof was calculated as (length×width×height/2). The body weight of the mice was also measured every two days.

STING [2] = target: T1, STING (Mus musculus, UniProt Q3TBT3); test: Flow cytometry of intracellular STING in Raw264.7 cells; assay type: cell-based; design: endogenous in cells; host or cells: Raw264.7; details: 24 hours, FIG. 15
T1 sequence (Q3TBT3 1-378): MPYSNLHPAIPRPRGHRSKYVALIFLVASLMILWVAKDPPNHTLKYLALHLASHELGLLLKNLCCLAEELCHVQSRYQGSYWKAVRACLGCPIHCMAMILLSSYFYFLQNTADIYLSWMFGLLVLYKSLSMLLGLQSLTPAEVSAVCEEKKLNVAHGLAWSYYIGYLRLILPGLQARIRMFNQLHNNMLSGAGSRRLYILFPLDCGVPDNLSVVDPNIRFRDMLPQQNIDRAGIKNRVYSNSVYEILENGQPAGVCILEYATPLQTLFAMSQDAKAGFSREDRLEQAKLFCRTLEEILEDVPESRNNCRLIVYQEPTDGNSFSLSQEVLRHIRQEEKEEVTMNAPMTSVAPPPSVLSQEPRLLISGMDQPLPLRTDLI
Protocol: It was verified whether the oxopiperazine derivatives increased the efficacy of STING agonists and other cancer immunotherapy, including immune checkpoint inhibitors. First, it was verified through flow cytometry and Western blotting whether the oxopiperazine derivatives increase the amount of STING.
To measure the intracellular amount of STING through flow cytometry, Raw264.7 cells were seeded in a transparent 6-well plate and cultured for one day. Thereafter, the cells were treated with a solution, in which the compound of Formula 1 is diluted in a culture medium without FBS, and cultured for 24 hours. […] After centrifugation of the collected cells, the supernatant was removed, the cells were redistributed in FACS solution (Hank's balanced salt solution (HBSS) including 2% horse serum and 0.05% NaN3), and the number of cells was measured. […] Finally, the Triton solution was added, centrifugation was performed, the supernatant was removed, the cells were redistributed into 200 μL of the Triton solution and analyzed by using a FACSCalibur instrument from BD Bioscience, and the results were quantitatively analyzed by using the FlowJo program from Tree Star, Inc.

[3] = Body weight and toxicity signals in CT26 syngeneic mouse model; assay type: in vivo; details: treated individually or in combination, FIG. 24
Protocol: as §1

[4] = system: tumor-infiltrating leukocytes (TILs); test: Flow cytometry of tumor-infiltrating immune cells; assay type: in vivo, mouse; details: combination with cGAMP, FIG. 26
Protocol: The tumors were extracted after the mice were euthanized with carbon dioxide. The tumor tissues were divided into small pieces with a razor blade, treated with the DMEM solution including 2% horse serum, 0.5 mg/ml of collagenase D, and 40 μg/mL of DNase I for one hour at 37° C., and permeated through a 40-μm filter, thereby being separated into individual cells. Tumor-infiltrating leukocytes (TILs) were separated from the separated cells by percoll concentration-gradient centrifugation, and red blood cells were removed by treatment with red blood cell lysis solution. The obtained cells were redistributed in the FACS solution described above, and FcγRII/III receptors of individual immune cells were neutralized by treatment with the anti-mouse CD16/CD32 Abs (clone 2.4G2) antibody at 4° C. for 10 minutes. The treatment with primary antibodies for individual cell differentiation were performed at 4° C. for 30 minutes. The treated cells were redistributed into a PBS solution after centrifugation and then further centrifuged to remove the supernatant. The cells were fixed by the treatment with 4% paraformaldehyde (PFA) solution at room temperature for 10 minutes, treated with Triton solution (PBS solution including 0.1% BSA and 0.5% Triton-X-100), and centrifuged, and then the supernatant was removed. Cytokine (IFNγ(XMG1.2)-APC, Perforin(S16009A)-PE, granzyme B(QA16A02)-FITC, Biolegend) primary antibodies were treated at room temperature for two hours. Finally, the Triton solution was added, centrifugation was performed, the supernatant was removed, the cells were redistributed into 200 μL of the Triton solution and analyzed by using a FACSCalibur device from BD Bioscience, and the results were quantitatively analyzed by using the FlowJo program from Tree Star, Inc.

[5] = combination with cGAMP compared with the control group

STING (Homo sapiens, UniProt Q86WV6), sequence (Q86WV6 whole entry H232R, species assumed): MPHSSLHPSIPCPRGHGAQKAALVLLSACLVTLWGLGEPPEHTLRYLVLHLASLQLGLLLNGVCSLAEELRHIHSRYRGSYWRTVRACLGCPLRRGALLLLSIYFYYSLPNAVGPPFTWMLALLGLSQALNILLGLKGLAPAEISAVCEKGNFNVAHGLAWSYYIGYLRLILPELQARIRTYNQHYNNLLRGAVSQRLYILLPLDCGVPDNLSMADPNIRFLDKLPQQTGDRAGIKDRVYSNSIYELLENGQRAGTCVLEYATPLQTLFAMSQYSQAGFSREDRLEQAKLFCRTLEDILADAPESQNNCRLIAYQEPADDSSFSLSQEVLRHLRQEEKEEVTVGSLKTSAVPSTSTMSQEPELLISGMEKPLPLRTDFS

## COc1ccc(CC2=CN(c3ccc(C(=O)NC[C@H]4CCCO4)cc3[N+](=O)[O-])[C@H](C(C)C)C(=O)N2Cc2ccc(O)cc2)cc1 [Formula 1, 4-((R)-4-(4-hydroxybenzyl)-2-isopropyl-5-(4-methoxybenzyl)-3-oxo-3,4-dihydropyrazin-1 (2H)-yl)-3-nitro-N-(((R)-tetrahydrofuran-2-yl)methyl)benzamide]
STING [1]; co-treated with actinomycin D (ActD) and cycloheximide (CHX), Western blotting, FIG. 10
  intracellular amount of STING under transcription and translation inhibition: still increased the intracellular amount of STING
STING [1]; co-treated with proteasome inhibitor MG132, Western blotting, FIG. 9
  STING amount under MG132 treatment: STING was not increased
CT26 tumor; combination with cGAMP compared with single treatment with cGAMP
  tumor growth: inhibited in a concentration-dependent manner
CT26 tumor; [5]
  tumor growth: inhibited
  weight of the tumor extracted on the final day: reduced
STING [2]
  fluorescence labeling intensity of intracellular STING: increased in a concentration-dependent manner
[3]
  body weight change or signal of toxicity: significant change in body weight or signal of toxicity was not observed
[4]; ratio of CD45+ cells
  infiltration of total T cells and cytotoxic T cells into the tumor: increased
[4]
  activity of infiltrated cytotoxic T cells (TNF-α, granzyme B, Perforin): increased
  total ratio of myeloid-derived suppressor cells (MDSC): decreased
